This note sets out measurements from patent publication US9024041B2, “P38 MAP kinase inhibitors” (Respivert Ltd., priority 2010, dated 2015).

SMILES strings stand for the structures. Bounds are passed on as bounds.

For data set [1], the system named is Poly I:C-induced ICAM-1 expression in BEAS2B cells. The data set can be described thus: Poly I:C-induced ICAM-1 induction in BEAS2B cells. Format: cell-based. The conditions noted are these: Homo sapiens, BEAS-2B, poly I:C 1 μg/mL, 18 hr, read-out: PolyI:C/ICAM1 IC50 BEAS2B. Here is the method: Cellular Potency as Determined by Poly I:C-Induced ICAM-1 Induction in BEAS2B Cells
Poly I:C (1 μg/mL) (Invivogen Ltd., San Diego, Calif.) was transfected into BEAS2B cells (human bronchial epithelial cells, ATCC) with Oligofectamine (Invitrogen, Carlsbad, Calif.). Cells were pre-incubated with final concentrations of test compounds for 2 hr and the level of ICAM1 expression on the cell surface was determined by cell-based ELISA. At a time point 18 hr after poly I:C transfection, cells were fixed with 4% formaldehyde in PBS and then endogenous peroxidase was quenched by the addition of 0.1% sodium azide and 1% hydrogen peroxide. Cells were washed with wash-buffer (0.1% Tween in PBS: PBS-Tween). and after blocking the wells with 5% milk in PBS-Tween for 1 hr, the cells were incubated with anti-human ICAM-1 antibody (Cell Signaling Technology, Danvers, Mass.) in 1% BSA PBS overnight at 4° C. The cells were washed with PBS-Tween and incubated with the secondary antibody (HRP-conjugated anti-rabbit IgG, Dako Ltd., Glostrup, Denmark). The ICAM-1 signal was detected by adding substrate and reading the absorbance at 450 nm against a reference wavelength of 655 nm using a spectrophotometer. The cells were then washed with PBS-Tween and total cell numbers in each well were determined by reading absorbance at 595 nm after Crystal Violet staining and elution by 1% SDS solution. The measured OD 450-655 readings were corrected for cell number by dividing with the OD595 reading in each well. The inhibition of ICAM-1 expression was calculated at each concentration of test compound by comparison with vehicle control. The 50% inhibitory concentration (IC50) was determined from the resultant concentration-response curve.

Data set [2] has as its system LPS-induced TNFα release in d-U937 cells. The data set can be described thus: LPS-induced TNFα release in d-U937 cells. Format: cell-based. The conditions noted are these: Homo sapiens, dU937, 4 h; read-out: LPS/TNFα REC50 d-U937. As to the method:
(§1) Cellular Potency as Determined by LPS-Induced TNFα/IL-8 Release in d-U937Cells
(§2) U937 cells, a human monocytic cell line, were differentiated to macrophage-type cells by incubation with phorbol myristate acetate (PMA; 100 ng/mL) for 48 to 72 hr. Cells were pre-incubated with final concentrations of test compound for 2 hr and were then stimulated with 0.1 μg/mL of LPS (from E. Coli: O111:B4, Sigma) for 4 hr. The supernatant was collected for determination of TNFα and IL-8 concentrations by sandwich ELISA (Duo-set, R&D systems). […] The relative 50% effective concentration (REC50) was determined from the resultant concentration-response curve. The inhibition of IL-8 production was calculated at each concentration of test compound by comparison with vehicle control. The 50% inhibitory concentration (IC50) was determined from the resultant concentration-response curve.

Data set [3] has as its target T1, Recombinant, phosphorylated p38 MAPKγ (MAPK12:Invitrogen) (Homo sapiens, UniProt P53778).
T1 construct: purchased Invitrogen
T1 sequence (P53778 1-367): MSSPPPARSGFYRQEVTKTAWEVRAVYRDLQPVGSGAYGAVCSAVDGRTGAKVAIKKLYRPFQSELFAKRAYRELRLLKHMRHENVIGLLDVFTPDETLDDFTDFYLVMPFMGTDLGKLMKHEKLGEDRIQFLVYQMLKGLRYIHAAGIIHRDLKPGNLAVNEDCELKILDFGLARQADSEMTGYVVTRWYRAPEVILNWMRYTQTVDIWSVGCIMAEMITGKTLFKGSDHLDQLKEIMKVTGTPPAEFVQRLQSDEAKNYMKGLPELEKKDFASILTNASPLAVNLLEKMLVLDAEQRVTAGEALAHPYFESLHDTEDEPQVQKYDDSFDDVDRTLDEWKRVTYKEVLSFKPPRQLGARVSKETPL
The data set can be described thus: p38 MAPKγ enzyme inhibition assay (FRET, Z-LYTE). As to conditions: 2 hr pre-incubation, ATP 100 μM; read-out: Enzyme Inhibition IC50 p38γ. In kind it is biochemical.
Protocol: (§3) The enzyme inhibitory activities of compounds disclosed herein were determined by fluorescence resonance energy transfer (FRET) using synthetic peptides labelled with both donor and acceptor fluorophores (Z-LYTE, Invitrogen Ltd., Paisley, UK). Recombinant, phosphorylated p38 MAPKγ (MAPK12:Invitrogen) was diluted in HEPES buffer, mixed with the test compound at the desired final concentrations and incubated for 2 hr at RT. The FRET peptide (2 μM) and ATP (100 μM) were added to the enzyme/compound mixture and incubated for 1 hr. Development reagent (protease) was added for 1 hr prior to detection in a fluorescence microplate reader (Varioskan® Flash, ThermoFisher Scientific). The site-specific protease cleaves non-phosphorylated peptide only and eliminates the FRET signal. Phosphorylation levels of each reaction were calculated using the ratio of coumarin emission (donor) over fluorescein emission (acceptor) for which high ratios indicate high phosphorylation and low ratios indicate low phosphorylation levels.

The test system of data set [4] is LPS-induced TNFα release in THP-1 cells. The data set can be described thus: LPS-induced TNFα release in THP-1 cells. In kind it is cell-based. The conditions noted are these: Homo sapiens, 3 μg/mL LPS, 4 hr. Here is the method:
Cellular Potency as Determined by LPS-Induced TNFα Release in THP-1 Cells
THP-1 cells, a human monocytic cell line, were stimulated with 3 μg/mL of LPS (from E. Coli; 0111:B4, Sigma) for 4 hr and the supernatant collected for determination of the TNFα concentration by sandwich ELISA (Duo-set, R&D systems). The inhibition of TNFα production was calculated at each concentration by comparison with vehicle control. The 50% inhibitory concentration (IC50) was determined from the resultant concentration-response curve.

In data set [5] the target is T2, p38 MAPKα isoform (MAPK14: Invitrogen) (Homo sapiens, UniProt Q16539).
T2 construct: purchased Invitrogen
Put plainly: p38 MAPKα enzyme inhibition assay (FRET, Z-LYTE, via MAPKAP-K2 activation). Format: biochemical. As to conditions: 2 hr pre-incubation, ATP 10.0 μM; read-out: Enzyme Inhibition IC50 p38α.
Protocol: as §3
For the p38 MAPKα isoform (MAPK14: Invitrogen), enzyme activity was evaluated indirectly by determining the level of activation/phosphorylation of the down-stream molecule, MAPKAP-K2. The p38 MAPKα protein was mixed with the test compound for 2 hr at RT. […] Development reagent was then added and the mixture incubated for 1 hr before detection by fluorescence completed the assay protocol.

Data set [6] relates to Differentiated U937 cells. The data set can be described thus: MTT assay: cell viability on exposure to test compounds. In kind it is cell-based, human. The conditions noted are these: percentage loss of cell viability vs vehicle, 1 μg/mL; for MTT Assay (Viability) 4 h d-U937: 5% FCS; for MTT Assay (Viability) 24 h d-U937: 10% FCS. Here is the method: MTT Assay: Determination of Cell Viability on Exposure to Test Compounds
Differentiated U937 cells were pre-incubated with each test compound under two protocols: the first for 4 hr in 5% FCS and the second in 10% FCS for 24 h. The supernatant was replaced with 200 μL of new media and 10 μL of MTT stock solution (5 mg/mL) was added to each well. After incubation for 1 hr the media were removed, 200 μL of DMSO was added to each well and the plates were shaken lightly for 1 hr prior to reading the absorbance at 550 nm. The percentage loss of cell viability was calculated for each well relative to vehicle (0.5% DMSO) treatment. Consequently an apparent increase in cell viability for drug treatment relative to vehicle is tabulated as a negative percentage.
(In general: Tetrazolium dyes change colour on reduction, which living cells bring about.)

Data set [7] deals with LPS-induced IL-8 release in d-U937 cells. Put plainly: LPS-induced IL-8 release in d-U937 cells. The conditions noted are these: Homo sapiens, dU937, 0.1 μg/mL LPS, 4 hr. In kind it is cell-based. Here is the method:
as §1, §2

T2 sequence (Q16539 whole entry, canonical isoform): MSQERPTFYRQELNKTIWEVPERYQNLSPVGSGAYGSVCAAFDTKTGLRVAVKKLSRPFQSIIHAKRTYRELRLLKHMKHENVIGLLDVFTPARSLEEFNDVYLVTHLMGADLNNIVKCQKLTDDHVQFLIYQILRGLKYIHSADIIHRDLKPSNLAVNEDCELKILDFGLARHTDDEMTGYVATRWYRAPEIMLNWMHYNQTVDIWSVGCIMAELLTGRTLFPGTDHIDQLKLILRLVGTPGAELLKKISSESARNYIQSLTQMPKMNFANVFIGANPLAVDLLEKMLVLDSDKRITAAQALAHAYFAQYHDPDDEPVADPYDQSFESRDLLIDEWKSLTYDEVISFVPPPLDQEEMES

With `COCC(=O)Nc1cc(Oc2ccc(NC(=O)Nc3cc(C4(C)CCOCC4)nn3-c3ccc(C)cc3)c3ccccc23)ccn1` [Example 20, 2-Methoxy-N-(4-(4-(3-(3-(4-methyltetrahydro-2H-pyran-4-yl)-1-p-tolyl-1H-pyrazol-5-yl)ureido)naphthalen-1-yloxy)pyridin-2-yl)acetamide], the IC50 in data set [1] came to 4.4 nM; in data set [3], 143 nM; in data set [4], 0.9 nM; in data set [5] it was 3.6 nM; in data set [7], 0.6 nM. Moreover, the EC50 in data set [2] was determined as 0.2 nM. Also, in data set [6], the “MTT Assay (Viability) 4 h d-U937” value was −32.6%. The “MTT Assay (Viability) 24 h d-U937” value in data set [6] was −9.0%.

`CSc1ccc(-n2nc(C(C)(C)C)cc2NC(=O)Nc2ccc(Oc3ccnc(NC(=O)N4CCCC4)c3)c3ccccc23)cc1` [Example 14, N-(4-(4-(3-(3-tert-Butyl-1-(4-(methylthio)phenyl)-1H-pyrazol-5-yl)ureido)naphthalen-1-yloxy)pyridin-2-yl)pyrrolidine-1-carboxamide]: the IC50 is 1.9 nM in data set [1]; 400 nM in data set [3]; 3.2 nM in data set [4]; 17 nM in data set [5]; 7.3 nM in data set [7]. Besides, the EC50 in data set [2] was determined as 0.6 nM. The “MTT Assay (Viability) 4 h d-U937” value in data set [6] was −0.4%. Besides, the “MTT Assay (Viability) 24 h d-U937” value in data set [6] is reported as −50.0%.

Turning to `COc1ccc(-n2nc(C(C)(C)C)cc2NC(=O)Nc2ccc(Oc3ccnc(NC(=O)N4CCCC4)c3)c3ccccc23)cc1` [Example 8, N-(4-(4-(3-(3-tert-Butyl-1-(4-methoxyphenyl)-1H-pyrazol-5-yl)ureido)naphthalen-1-yloxy)pyridin-2-yl)pyrrolidine-1-carboxamide], the IC50 in data set [1] amounted to 1.4 nM; in data set [3], 228 nM; in data set [4] it was 1.6 nM; in data set [5] it was 16.6 nM; in data set [7] it was 1.2 nM. Besides, the EC50 in data set [2] is 0.6 nM. Also, the “MTT Assay (Viability) 4 h d-U937” value in data set [6] is reported as −20.1%. Further, the “MTT Assay (Viability) 24 h d-U937” value in data set [6] is −77.9%.

Turning to `CNC(=O)Nc1cc(Oc2ccc(NC(=O)Nc3cc(C(C)(C)C)nn3-c3ccc(OC)cc3)c3ccccc23)ccn1` [Example 38, 1-(4-(4-(3-(3-tert-butyl-1-(4-methoxyphenyl)-1H-pyrazol-5-yl)ureido)naphthalen-1-yloxy)pyridin-2-yl)-3-methylurea], the IC50 in data set [1] stood at 9.8 nM; in data set [3], 122 nM; in data set [4], 1.7 nM; in data set [5], 15.7 nM; in data set [7], 21.8 nM. Further, in data set [2], the EC50 stood at 18.4 nM. In addition, the “MTT Assay (Viability) 4 h d-U937” value in data set [6] was −1.7%. Besides, the “MTT Assay (Viability) 24 h d-U937” value in data set [6] was −38.2%.

In the case of `COCC(=O)Nc1cc(Oc2ccc(NC(=O)Nc3cc(C(C)(C)C)nn3-c3cccc(OC)c3)c3ccccc23)ccn1` [Example 36, N-(4-(4-(3-(3-tert-butyl-1-(3-methoxyphenyl)-1H-pyrazol-5-yl)ureido)naphthalen-1-yloxy)pyridin-2-yl)-2-methoxyacetamide], the IC50 in data set [1] is 4.9 nM; in data set [3], 153 nM; in data set [4] it was 0.8 nM; in data set [5], 15.1 nM; in data set [7], 0.8 nM. In addition, in data set [2], the EC50 was 0.1 nM. For the same molecule, in data set [6], the “MTT Assay (Viability) 4 h d-U937” value is given as −5.2%. Further, the “MTT Assay (Viability) 24 h d-U937” value in data set [6] is on record as −1.6%.

Consider `COCC(=O)Nc1cc(COc2ccc(NC(=O)Nc3cc(C(C)(C)C)nn3-c3ccc(OC)nc3)c(C)c2C)ccn1` [Example 61, N-(4-((4-(3-(3-tert-butyl-1-(6-methoxypyridin-3-yl)-1H-pyrazol-5-yl)ureido)-2,3-dimethylphenoxy)methyl)pyridin-2-yl)-2-methoxy acetamide], for which the IC50 is greater than 1700 nM in data set [1]; 2810 nM in data set [3]; 1260 nM in data set [4]; 12.8 nM in data set [5]; 204 nM in data set [7]. In addition, the EC50 in data set [2] stood at 120 nM. In addition, the “MTT Assay (Viability) 4 h d-U937” value in data set [6] was determined as 3.5%. For the same molecule, the “MTT Assay (Viability) 24 h d-U937” value in data set [6] is −5.1%.

`COCC(=O)Nc1cc(Oc2ccc(NC(=O)Nc3cc(C(C)(C)C)nn3-c3cc(OC)cc(OC)c3)c3ccccc23)ccn1` [Example 53, N-(4-(4-(3-(3-tert-butyl-1-(3,5-dimethoxyphenyl)-1H-pyrazol-5-yl)ureido)naphthalen-1-yloxy)pyridin-2-yl)-2-methoxyacetamide]: the IC50 came out at 27.4 nM in data set [1]; 83.4 nM in data set [3]; 1.2 nM in data set [4]; 29.9 nM in data set [5]; 20 nM in data set [7]. Also, the EC50 in data set [2] is 0.4 nM. Also, the “MTT Assay (Viability) 4 h d-U937” value in data set [6] was found to be 3.1%. The “MTT Assay (Viability) 24 h d-U937” value in data set [6] was −0.9%.

Take `CC(C)(C)c1cc(NC(=O)Nc2ccc(Oc3ccnc(NC(=O)N4CCOCC4)c3)c3ccccc23)n(-c2ccc(S(C)(=O)=O)cc2)n1` [Example 49, N-(4-(4-(3-(3-tert-butyl-1-(4-(methylsulfonyl)phenyl)-1H-pyrazol-5-yl)ureido)naphthalen-1-yloxy)pyridin-2-yl)morpholine-4-carboxamide]: the IC50 in data set [1] was 10.7 nM; in data set [3], 185 nM; in data set [4] it was 0.8 nM; in data set [5] it was 5.2 nM; in data set [7], 0.8 nM. Further, the EC50 in data set [2] worked out at 0.5 nM. The “MTT Assay (Viability) 4 h d-U937” value in data set [6] is given as −15.9%. Also, in data set [6], the “MTT Assay (Viability) 24 h d-U937” value worked out at 11.8%.

For `COCC(=O)Nc1cc(Oc2ccc(NC(=O)Nc3cc(C(C)(C)C)nn3-c3ccc(OC)cc3)c3ccccc23)ccn1` [Example 3, N-(4-((4-(3-(3-(tert-Butyl)-1-(4-methoxyphenyl)-1H-pyrazol-5-yl)ureido)naphthalen-1-yl)oxy)pyridin-2-yl)-2-methoxyacetamide], the IC50 was determined as 5.7 nM in data set [1]; 58.2 nM in data set [3]; 1.5 nM in data set [4]; 15.5 nM in data set [5]; 3.3 nM in data set [7]. Also, the EC50 in data set [2] was found to be 1.9 nM. In data set [6], the “MTT Assay (Viability) 4 h d-U937” value was −28.4%. Moreover, the “MTT Assay (Viability) 24 h d-U937” value in data set [6] is reported as −51.5%.
